Measurements as given in patent US4225610A, “Immunoactivators derived from amino thiazoles” (Pierre Fabre, S.A., priority 1977, dated 1980).
Where “and” joins values, the source holds several entries; their conditions need not be identical. Identical values can stand only once. Entries after “also recorded” stand apart in the source; their conditions may differ. Like-named read-outs stand apart in the source and are kept apart here.

Tests used:
in vivo = type: in vivo; settings: mouse, in vivo, po; mice, per os, single administration, 7 days
Source text: (§1) The acute toxicity after a single administration of the products per os was studied in mice.
(§2) The compounds were placed in suspension in a mixture of Tween 80™ and distilled water. […] Exper.

mice = test: in vivo; type: in vivo
Source text: as §1, §2

[1] = system: Delayed Hypersensitivity Pleurisy to Bordetella pertussis; test: Pleurisy of delayed hypersensitivity to Bordetella pertussis in rats after chronic treatment; type: in vivo; settings: for Action on the number of mononuclears / Action on the number of polynuclears / Action on the total number of leukocytes / Action on the volume of exudate: 5 mg/kg p.o.; for Delayed hypersensitivity pleural inflammation (in words) / Action compared with levamisole (in words): orally, chronic treatment, 5 mg/kg/administration; for Action compared with levamisole (in words): both treatment procedures
Procedure: II--Action on Pleurisy of Delayed Hypersensitivity to Bordetella pertussis in Rats After Chronic Treatment […]
Male rats weighing 280-320 g are used. The suspension of Bordetella pertussis used is the pertussis vaccine of the Pasteur Institute (5×10^9 killed bacilli per ml). The Bordetella pertussis suspension is mixed (V/V: 50/50) with Freund's complete adjuvant. 0.2 ml of this mixture is injected intramuscularly into each thigh of the rat.
6 days later, 0.1 ml of the Bordetella pertussis suspension is injected into the pleural cavity. 48 hours later, the pleural exudate formed is removed and measured. The total number of leukocytes and the number of mononuclears and polynuclears of the exudate are determined.
The products studied were administered chronically in accordance with two procedures:
Procedure 1: The treatment commences on the day of the sensitization and continues at the rate of one administration per day until the challenge injection. On the day of the latter the compounds are given twice: one administration before and one after the intrapleural injection of the antigen. The animals are treated a last time 24 hours later.
Procedure 2: The treatment commences three weeks before the sensitization. During these three weeks, the products are given at the rate of 5 times per week. The treatment is then continued as indicated above in Procedure 1.

[2] = system: cutaneous delayed hypersensitivity reaction to PPD; type: in vivo, albino guinea pigs
[3] = Chronic toxicity per os for two months in rats; settings: rat, in vivo, po, read-out: Dose not resulting in any toxic phenomenon
[4] = 1000 mg/kg per os, 5 mice per lot
[5] = 200 mg/kg per os, 5 mice per lot

| Structure (SMILES) | LD50 at 168 h (in vivo) [mg/kg] | Mortality at the end of 7 days (mice; [4]) | Solubility in DMA (Solubility) [%] | Solubility in methyl pyrrolidone (Solubility) [%] | Solubility in water (Solubility) | also measured |
| --- | --- | --- | --- | --- | --- | --- |
| O=C(Nc1nc(-c2ccc(Cl)cc2)cs1)Oc1ccccc1 [F 1687] | > 1000 | 0 | 5 | 5 | insoluble |  |
| Nc1nc(-c2ccccc2)cs1 [F 1653, 4-phenyl 2-amino thiazole] | 140 |  |  |  | insoluble | Mortality at the end of 7 days (mice; 100 mg/kg per os, 5 mice per lot): 0; Mortality at the end of 7 days (mice; [5]): 5; Solubility in dimethyl pyrrolidone (Solubility; dimethyl pyrrolidone): 20%; Solubility in ethanol (Solubility): 1% |
| O=C(Nc1nc(-c2ccccc2)cs1)Oc1ccccc1 [F 1659, 4-phenyl 2-phenoxy carbamoyl thiazole] | > 1000 | 0 | 4 | 3 | insoluble |  |
| O=C(Nc1nc(-c2ccc(Cl)cc2)cs1)c1cccnc1 [F 1685, N(4-parachlorophenyl 2-thiazolyl) nicotinamide] | > 1000 | 0 | 20 | 20 | insoluble |  |
| O=C(Nc1nc(-c2ccc(Cl)cc2)cs1)OCC(Cl)(Cl)Cl [F 1660, 4-parachlorophenyl 2-(2'-2'-2'-trichloroethoxycarbamido) thiazole] | > 1000 | 0 | 20 | 20 | insoluble |  |
| O=C(O)CCC(=O)Nc1nc(-c2ccc(Cl)cc2)cs1 [F 1683, N(4-parachlorophenyl 2-thiazolyl) succinamic acid] | > 1000 | 0 | 20 | 20 | insoluble |  |
| c1ccc([C@H]2CN3CCSC3=N2)cc1 [Levamisole, L-tetramisole, reference compound] |  |  |  |  |  | Action on the number of mononuclears ([1]; Treatment procedure 1): -11%; Action on the number of polynuclears ([1]; Treatment procedure 1): -9%; Action on the total number of leukocytes ([1]; Treatment procedure 1): -10%; Action on the volume of exudate ([1]; Treatment procedure 1): -22%; Action on the number of mononuclears ([1]; Treatment procedure 2): -17%; Action on the number of polynuclears ([1]; Treatment procedure 2): -7%; Action on the total number of leukocytes ([1]; Treatment procedure 2): -13%; Action on the volume of exudate ([1]; Treatment procedure 2): -23%; Effect on the response to PPD (in words) ([2]; guinea pig, in vivo): to a definitely lesser degree stimulate the response; also recorded: do not modify it significantly any longer |
| Nc1nc(-c2ccc(Cl)cc2)cs1 [F 1654, 4-Parachloro-phenyl 2-amino thiazole] | 300 |  |  |  | insoluble | Action on the volume of exudate ([1]; Treatment procedure 2): -41%; Delayed hypersensitivity pleural inflammation (in words) [1]: reduce the delayed hypersensitivity pleural inflammation; Action compared with levamisole (in words) [1]: superior to that of levamisole; Mortality at the end of 7 days (mice; [5]): 0; Mortality at the end of 7 days (mice; 300 mg/kg per os, 5 mice per lot): 3; Mortality at the end of 7 days (mice; 500 mg/kg per os, 5 mice per lot): 5; Solubility in ethanol (Solubility): 15% |
| CCCCCCCCCCCC(=O)Nc1nc(-c2ccccc2)cs1 [F 1655] | > 1000 | 0 | 25 | 25 | insoluble |  |
| CCOC(=O)Nc1nc(-c2ccccc2)cs1 [F 1658, 4-phenyl 2-(ethoxycarboxamido) thiazole] |  |  | 25 | 25 | insoluble |  |
| O=C(O)CCC(=O)Nc1nc(-c2ccccc2)cs1 [F 1657, N(4-phenyl 2-thiazolyl) succinamic acid] | > 1000 | 0 | 20 | 25 | insoluble |  |
| O=C(Nc1nc(-c2ccccc2)cs1)c1cccnc1 [F 1684, N(4-phenyl 2-thiazolyl) nicotinamide] | > 1000 | 0 | 5 | 5 | insoluble |  |
| CCCCCCCCCCCCCCCCCC(=O)Nc1nc(-c2ccccc2)cs1 [F 1656, 4-phenyl 2-stearamido thiazole] | > 1000 | 0 | 20 | 20 | insoluble |  |
| O=C(Nc1nc(-c2ccccc2)cs1)OCC(Cl)(Cl)Cl [F 1686, 4-phenyl-2-(2'-2'-2'-trichloroethoxycarboxamido) thiazole] | > 1000 |  | 25 | 20 | insoluble | Action on the number of mononuclears ([1]; Treatment procedure 1): -21%; Action on the number of polynuclears ([1]; Treatment procedure 1): -16%; Action on the total number of leukocytes ([1]; Treatment procedure 1): -19%; Action on the volume of exudate ([1]; Treatment procedure 1): -35%; Action on the number of mononuclears ([1]; Treatment procedure 2): -29%; Action on the number of polynuclears ([1]; Treatment procedure 2): -6%; Action on the total number of leukocytes ([1]; Treatment procedure 2): -22%; Action on the volume of exudate ([1]; Treatment procedure 2, 5 mg/kg): -50% and -42%; Delayed hypersensitivity pleural inflammation (in words) [1]: reduce the delayed hypersensitivity pleural inflammation; Action compared with levamisole (in words) [1]: superior to that of levamisole; Effect on the response to PPD (in words) ([2]; […], response of low intensity in controls (two to three weeks)): stimulate the response; Effect on the response to PPD (in words) ([2]; after 5 and 6 weeks): do not modify it significantly any longer; Stimulation of the reaction to the PPD (in words) ([2]; dependence on immune state): does not stimulate the reaction to the PPD except when the guinea pigs are in a state of hypoimmunization; Mortality at the end of 7 days (mice; 1000 mg/kg per os, 10 mice per lot): 0; NOAEL at 1460 h [3]: ≤ 30 mg/kg/day; Solubility in ethanol (Solubility): 3% |
